Experimental data reported in paper PMC3032679 (Journal of Translational Medicine, 2011).
Entries after “also recorded” stand apart in the source; their conditions may differ. Peptide text beside a SMILES is read from it.

Experiments:
liver, kidney, and lung = assay: Histologic examination of organs (H & E); assay type: in vivo, athymic nude mice; settings: 5 mg/kg i.v., nine times, versus saline
Text: (A) BXPC3 pancreatic cancer cells were implanted subcutaneously into athymic nude mice. […] Each group had six animals (n = 6), and experiments were repeated twice. Data are expressed as mean ± SD. […] Scale bars, 25 μm. (C) Histologic examination after treatment with Antp-TPR hybrid peptide.

OE19 cells = settings: Antp-TPR; gastric cancer OE19; mean of three independent experiments each in triplicate; 72 h (Figure 2)
Description: (§1) The following human tumor and normal cell lines were obtained from the American Type Culture Collection (ATCC): human breast cancer (BT-20, T47D, and MDA-MB-231), lung cancer (A549), kidney cancer (Caki-1), prostate cancer (LNCap), gastric cancer (OE19) and lung fibroblast (MRC5). Human pancreatic cancer cell line (BXPC3) was purchased from the European Collection of Cell Culture (ECACC). Human embryonic kidney cell line (HEK293T) and human normal pancreatic epithelial (PE) cell line ACBRI 515 were purchased from RIKEN cell bank and DS Pharma Biomedical, respectively. Cells were cultured in RPMI-1640 (BT-20, MDA-MB-231, T47D, LNCap, OE19, and BXPC3), MEM (MRC5 and A549), DMEM (HEK293T and Caki-1) or CSC (PE) containing 10% fetal bovine serum (FBS), 100 μg/ml penicillin, and 100 μg/ml streptomycin.
(§2) Cells were seeded on to 96-well plates at 2000-3000 cells/well and incubated with the test peptide. After incubation, an assay for cell viability was carried out using Living Cell Count Reagent SF (Nacalai Tesque) according to the manufacturer's protocol. Absorbance was measured at a wavelength of 450 nm using a 96-well microplate reader (GE Healthcare).
(§3) Data represent the mean ± SD from experiments performed in triplicate.

MDA-MB-231 cells = assay: Cell viability assay, MDA-MB-231; assay type: cell-based, human; settings: Antp-TPR; breast cancer MDA-MB-231; mean of three independent experiments each in triplicate; 72 h (Figure 2)
Description: as §1, §2, §3

BXPC3 cells = assay: Cell viability assay, BXPC3; assay type: cell-based, human; settings: Antp-TPR; pancreatic cancer BXPC3; mean of three independent experiments each in triplicate; 72 h (Figure 2)
Description: as §1, §2, §3

MRC5 cells = settings: Antp-TPR; normal cells MRC5; mean of three independent experiments each in triplicate; 72 h (Figure 2)
Description: as §1, §2, §3

PE cells = assay: Cell viability assay, PE; assay type: cell-based, human; settings: Antp-TPR; normal cells PE; mean of three independent experiments each in triplicate; 72 h (Figure 2)
Description: as §1, §2, §3

HEK293T cells = assay: Cell viability assay, HEK293T; assay type: cell-based, human; settings: Antp-TPR; normal cells HEK293T; mean of three independent experiments each in triplicate; 72 h (Figure 2)
Description: as §1, §2, §3

[1] = Observation of behavior and appetite after treatment; assay type: in vivo; settings: mice
BT20 cells = assay: Cell viability assay, BT20; assay type: cell-based, human; settings: Antp-TPR; breast cancer BT20; mean of three independent experiments each in triplicate; 72 h (Figure 2)
Description: as §1, §2, §3

[2] = system: normal human cell lines (HEK293T, MRC5, and PE); assay: Cell viability assay, normal cell lines (panel); settings: identical concentrations, 72 h
Description: as §1, §2, §3

A549 cells = assay: Cell viability assay, A549; assay type: cell-based, human; settings: Antp-TPR; lung cancer A549; mean of three independent experiments each in triplicate; 72 h (Figure 2)
Description: as §1, §2, §3

LNcap cells = settings: Antp-TPR; prostate cancer LNcap; mean of three independent experiments each in triplicate; 72 h (Figure 2)
Description: as §1, §2, §3

Caki-1 cells = settings: Antp-TPR; renal cancer Caki-1; mean of three independent experiments each in triplicate; 72 h (Figure 2)
Description: as §1, §2, §3

[3] = system: normal and cancer cell lines; assay: Cell viability assay, normal and cancer cell lines (panel); assay type: cell-based, human; settings: 72 h
Description: as §1, §2, §3

[4] = system: interaction of Hsp90 with the TPR2A domain of Hop; assay: SPR competition: Hsp90 binding to TPR2A domain of Hop; assay type: biochemical, human; settings: Hsp90 1 μM over immobilized TPR2A (5000 RU), peptide 1.4, 14, 140, 280, 700 μM and 1 mM
Description: To confirm the presence of purified protein, SDS/PAGE was performed according to the method of Laemmli.
SPR experiments were performed with the Biacore biosensor 3000 system as described previously. Human recombinant Hop, FKBP5, PP5, and purified TPR2A domain of Hop proteins were immobilized on the surface of CM5 sensor chips via N-hydroxysuccinimide and N-ethyl-N'-(dimethylaminopropyl)carbodiimide activation chemistry according to the manufacturer's instructions. Biotin-conjugated TPR peptide (biotin-TPR) was immobilized on the surface of streptavidin (SA) sensor chip. […] HBS-EP buffer (0.01 M Hepes/0.15 M NaCl/0.005% Tween 20/3 mM EDTA, pH 7.4) was used as a running buffer during the assay to inhibit non-specific binding. Data analysis was performed using BIA evaluation version 4.1 software. […] SPR signals obtained in the absence of competing peptides were used as a reference (100% binding) to normalize values obtained in the presence of peptides.
The SPR signal in the absence of competing peptides was used as a reference (100% binding).

CC[C@H](C)[C@H](NC(=O)[C@H](CCCNC(=N)N)NC(=O)[C@H](C)NC(=O)[C@H](Cc1ccc(O)cc1)NC(=O)[C@H](C)NC(=O)[C@H](CCCCN)NC(=O)[C@H](CCCCN)NC(=O)[C@H](CCCCN)NC(=O)[C@H](Cc1c[nH]c2ccccc12)NC(=O)[C@H](CCCCN)NC(=O)[C@H](CCSC)NC(=O)[C@H](CCCNC(=N)N)NC(=O)[C@H](CCCNC(=N)N)NC(=O)[C@H](CC(N)=O)NC(=O)[C@H](CCC(N)=O)NC(=O)[C@H](Cc1ccccc1)NC(=O)[C@H](Cc1c[nH]c2ccccc12)NC(=O)[C@@H](NC(=O)[C@H](CCCCN)NC(=O)[C@@H](NC(=O)[C@H](CCC(N)=O)NC(=O)[C@@H](N)CCCNC(=N)N)[C@@H](C)CC)[C@@H](C)CC)C(=O)NCC(=O)N[C@@H](CC(N)=O)C(=O)N[C@@H](CO)C(=O)N[C@@H](Cc1ccc(O)cc1)C(=O)N[C@@H](Cc1ccccc1)C(=O)N[C@@H](CCCCN)C(=O)O [Antp-TPR] (H-RQIKIWFQNRRMKWKKKAYARIGNSYFK-OH)
histologic examination of liver, kidney, and lung (liver, kidney, and lung): equally unremarkable in the saline or hybrid peptide-treated mice; also recorded: did not cause serious damages to the main organs (liver, kidney, and lung) and normal tissues | IC50 (OE19 cells): 33.4 µM | IC50 (MDA-MB-231 cells): 56.9 µM | IC50 (BXPC3 cells): 44.8 µM | IC50 (MRC5 cells): > 100 µM | IC50 (PE cells): > 100 µM | IC50 (HEK293T cells): > 100 µM | abnormal behaviors or losing of appetite [1]: any abnormal behaviors or losing of appetite after the treatment with this peptide was not also observed | IC50 (BT20 cells): 37.4 µM | effect on viability of normal cells [2]: did not apparently reduce the viability; also recorded: less cytotoxic to normal cells | IC50 (A549 cells): 65.9 µM | IC50 (LNcap cells): 56.7 µM | IC50 (Caki-1 cells): 47.9 µM

CC[C@H](C)[C@H](NC(=O)[C@H](CCCNC(=N)N)NC(=O)[C@H](C)NC(=O)[C@H](Cc1ccc(O)cc1)NC(=O)[C@H](C)NC(=O)[C@@H](N)CCCCN)C(=O)NCC(=O)N[C@@H](CC(N)=O)C(=O)N[C@@H](CO)C(=O)N[C@@H](Cc1ccc(O)cc1)C(=O)N[C@@H](Cc1ccccc1)C(=O)N[C@@H](CCCCN)C(=O)O [TPR]
effect on viability / cytotoxicity [3]: no effect on normal or cancer cells; also recorded: no cytotoxicity

KAYAAAGNSYFK [TPR mutant 1]
competition for interaction of Hsp90 with TPR2A domain of Hop [4]: did not demonstrate any protein interaction when analyzed at up to millimolar concentrations

KAYARIGNSGGG [TPR mutant 2, TPR with last three amino acids, Tyr-Phe-Lys, replaced with three Gly residues]
competition for interaction of Hsp90 with TPR2A domain of Hop [4]: did not demonstrate any protein interaction when analyzed at up to millimolar concentrations

RKFSAAIGYNKY [TPR scramble, scramble peptide of TPR]
competition for interaction of Hsp90 with TPR2A domain of Hop [4]: did not demonstrate any protein interaction when analyzed at up to millimolar concentrations

RQIKIWFQNRRMKWKKKAYAAAGNSYFK [Antp-TPR mutant 1]
selective antitumor activity [3]: did not show selective antitumor activities

RQIKIWFQNRRMKWKKKAYARIGNSGGG [Antp-TPR mutant 2]
selective antitumor activity [3]: did not show selective antitumor activities

RQIKIWFQNRRMKWKKRKFSAAIGYNKY [Antp-scramble, scramble peptide fused to Antennapedia helix III]
effect on viability / cytotoxicity [3]: no effect on these cell lines
